From patent US8476287B2, “3-hydroxy-5-arylisothiazole derivative” (Mochida Pharmaceutical Co., Ltd., priority 2009, dated 2013) come the findings set out here.

Each structure is given as a SMILES string. Some results are limits rather than exact numbers.

The target in the experiment is T1, GPR40 of human origin (Homo sapiens, UniProt O14842).
T1 construct: expressed in transfected cells
Nature of the experiment: Agonist action on GPR40 of human origin (Ca2+ fluorescence in CHO cells). It counts as cell-based. The settings on record: CHO cell strain stably expressing GPR40 of human origin; Ca2+ concentration fluctuation, fluorescent calcium indicator. Here is the method: A CHO cell strain stably expressing GPR40 of human origin was used to determine the agonist action of a subject compound. This cell strain was seeded in a clear bottom 96 well plate at 4×10^4 cells/100 μL/well. The cell strain was cultured in a CO2 incubator overnight using a Ham's F-12 medium containing a 10% fetal bovine serum, 100 U/mL penicillin, 0.1 mg/mL streptomycin, and 400 μg/mL Geneticin. Calcium 4 Assay Kit (Molecular Devices) was used as a fluorescent calcium indicator. One mL of 77 mg/mL probenecid (Invitrogen) was added to 100 mL of a calcium indicator solution to prepare a solution (loading solution) mixed with a 20 mM HEPES-containing Hanks' balanced salt solution (HBSS) in equal proportions. 200 μL of the loading solution was added to the cells from which the culture solution was removed, and the cells were cultured in a CO2 incubator for 1 hour. The subject compound was diluted with a 20 mM HEPES-containing HBSS and was added to the cells by 50 μL, and the fluctuation of the Ca^2+ concentration was measured by an intracellular ion analyzer. The EC50 value of the subject compound was calculated using the dose-response curve of fluorescence intensity variation.

T1 sequence (O14842 whole entry): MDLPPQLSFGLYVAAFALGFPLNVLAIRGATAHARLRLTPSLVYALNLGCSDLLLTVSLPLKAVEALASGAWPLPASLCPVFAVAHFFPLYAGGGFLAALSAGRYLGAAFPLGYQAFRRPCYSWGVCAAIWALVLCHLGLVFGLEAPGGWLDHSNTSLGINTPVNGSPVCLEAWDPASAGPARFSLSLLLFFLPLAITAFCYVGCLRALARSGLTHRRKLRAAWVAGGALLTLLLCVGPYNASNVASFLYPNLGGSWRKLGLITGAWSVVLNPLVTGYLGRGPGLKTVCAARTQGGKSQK

By EC50 is commonly meant the concentration at which the effect is half-maximal. Take `[O-][s+]1nc(O)cc1-c1ccc(OC2CCc3c(OC4CCOCC4)cccc32)cc1` (centres unmarked) [Example 132, 5-[4-[[4-(oxan-4-yloxy)-2,3-dihydro-1H-inden-1-yl]oxy]phenyl]isothiazol-3-ol 1-oxide(A)]: the EC50 is less than 300 nM. To `[O-][s+]1nc(O)cc1-c1ccc(COCc2cccc(Br)c2)cc1` (centres unmarked) [Example 141, 5-[4-[(3-bromophenyl)methoxymethyl]phenyl]isothiazol-3-ol 1-oxide] belongs 300 to 3000 nM.
